The target in one data set is T1, 5HT6 (h) (Homo sapiens, UniProt P50406).
T1 construct: host or cells: CHO cells
The experiment in a line: 5HT subtype antagonism assay (Eurofins Cerep): 5HT6. It is filed as cell-based. As to conditions: concentration not given.

Data set [1] is described as follows: AMES test (mutagenic potential).

SMILES strings stand for the structures. Entries after “also recorded” stand apart in the source; their conditions may differ.

T1 sequence (P50406 whole entry): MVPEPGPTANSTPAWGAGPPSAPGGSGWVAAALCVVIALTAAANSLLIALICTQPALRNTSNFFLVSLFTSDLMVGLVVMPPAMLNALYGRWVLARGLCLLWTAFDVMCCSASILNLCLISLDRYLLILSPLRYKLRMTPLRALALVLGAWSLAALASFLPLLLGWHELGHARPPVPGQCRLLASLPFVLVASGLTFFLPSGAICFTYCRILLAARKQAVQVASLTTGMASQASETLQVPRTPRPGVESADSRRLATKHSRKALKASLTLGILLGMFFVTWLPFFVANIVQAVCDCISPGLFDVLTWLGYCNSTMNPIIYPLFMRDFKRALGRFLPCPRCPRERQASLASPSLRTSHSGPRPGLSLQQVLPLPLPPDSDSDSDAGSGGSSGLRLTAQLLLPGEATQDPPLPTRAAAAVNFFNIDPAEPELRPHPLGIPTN

In the case of `Cc1nc2n(c(=O)c1CCN1CCC(=C3c4ccc(Cl)cc4CCc4cccnc43)CC1)CCCC2O` (centres unmarked) [Compound 11c], the “Selectivity 6: % inhibition” value at 5HT6 (h) is recorded as 7%. Moreover, the AMES result in data set [1] is recorded as “didn’t show mutagenic potential; also recorded: Negative”.
